Data as given in patent US10010529B2, “Extended release pharmaceutical formulations with controlled impurity levels” (Ezra Pharma LLC, priority 2016, dated 2018).

Assays:
[1] = in vivo; cited from earlier work
[2] = Compatibility study for valsartan related compound A (Impurity A), 2 weeks 60° C. closed glass vial; type: physicochemical
Experimental: Valsartan and valsartan solubilized in molten solubilizers as depicted in tables I and II respectively were subjected to compatibility studies at the following condition: • 2 weeks 60° C. closed glass vial Solubilized valsartan used for the study was prepared by melting the solubiliser/s (Kolliphor P 407, Kolliphor TPGS and combination thereof) in a beaker at water bath temperature 65° C. The drug was mixed with the molten solubiliser/s uniformly at water bath temperature 65° C. and the cooled mass was used in the studies. Levels of Impurity A were evaluated at the tabulated conditions as mentioned in Table III.

CCCCC(=O)N(Cc1ccc(-c2ccccc2-c2nnn[nH]2)cc1)[C@H](C(=O)O)C(C)C [Valsartan API, (S)—N-(1-oxopentyl)-N-[[2′-(1H-tetrazol-5-yl) [1,1′-biphenyl]-4-yl]methyl]-L-valine]
absolute bioavailability [1]: about 25% | Impurity A level, 2 Weeks 60° C. Closed glass Vial ([2]; 2 weeks 60° C., closed glass vial): 0.05 | generation of Valsartan R-isomer impurity (Impurity A), in words ([2]; conditions of the compatibility study): not generated | Impurity A level, Initial ([2]; initial): 0.03
